Data on eight compounds can be found in publication PMC9516243, “Design of stapled peptide-based PROTACs for MDM2/MDMX atypical degradation and tumor suppression” (Theranostics, 2022).

In one data set the test system is HCT116 p53^-/- cells. As to the kind of experiment: Cell viability assay (CCK-8). The note with it: 72 h. In kind it is cell-based, human. The procedure:
(§1) The human colon carcinoma cell line HCT116 p53^+/+ was obtained from the Cell Bank of the Chinese Academy of Sciences (Shanghai, China). HCT116 p53^-/- cells were generously provided by Prof. Vogelstein of Johns Hopkins University. Both cell lines were cultured in McCoy's 5A medium (Gibco, USA) containing 10% FBS, 100 units/ml penicillin, and 100 μg/ml streptomycin at 37 °C in a humidified incubator containing 5% CO2. Cell viability was measured using a Cell Counting Kit-8 (CCK-8) (Dojindo, Kumamoto, Japan) according to the manufacturer's instructions. In brief, the cells (5 × 10^3 cells/well in […] medium) were cultured for 24 h in 96-well microplates in a humidified 5% CO2 incubator at 37 °C and then treated with varying concentrations of compounds or 0.1% DMSO vehicle control.

The test system of the next data set is HCT116 p53^+/+ cells. As to the kind of experiment: Cell viability assay (CCK-8). In kind it is cell-based, human. Particulars: 72 h. The procedure:
as §1

The nature of a further data set: circular dichroism. Particulars: phosphate buffer (PB); pH 7.2; 20 °C; 10-50 uM.
Data set [1] in a line: α-Helicity by CD spectroscopy. It is filed as physicochemical. Particulars: PB pH 7.2, 10-50 µM peptide, 20°C, calculated from [θ]222. The procedure:
Peptides were dissolved in PB (pH = 7.2) to concentrations ranging from 10 to 50 µM. CD spectra were obtained on a Jasco J-715 spectropolarimeter at 20°C. The spectra were collected using a 0.1 cm path length quartz cuvette with the following measurement parameters: wavelength, 185-255 nm; step resolution, 0.1 nm; speed, 20 nm/min; accumulations, 6; bandwidth, 1 nm. The helical content of each peptide was calculated as reported previously.

Positions of bridges follow the written chain, without caps; N, C: chain ends. Non-standard residues stand in square brackets, D forms with d. Residues, ends and D or L forms follow the SMILES beside them. Hyp = O=C(O)[C@@H]1C[C@@H](O)CN1; R8 = C=CCCCCCC[C@@](C)(N)C(=O)O; hLeu = CC(C)CC[C@H](N)C(=O)O; S5 = C=CCCC[C@](C)(N)C(=O)O; PEG3 = NCCOCCOCCOCCC(=O)O; PEG2 = NCCOCCOCCC(=O)O; AEA = NCCOCC(=O)O

For the compound `CC(=O)N[C@H](C(=O)N[C@@H](CO)C(=O)N[C@@H](Cc1ccccc1)C(=O)N[C@@]1(C)CCCC=CCCC[C@@](C)(C(=O)N[C@@H](CC(C)C)C(=O)N[C@@H](CC(C)C)C(=O)N[C@@H](CO)C(=O)NCCOCCOCCC(=O)N[C@@H](CC(C)C)C(=O)N[C@@H](C)C(=O)N2C[C@H](O)C[C@H]2C(=O)N[C@@H](Cc2ccc(O)cc2)C(=O)N[C@@H](CCC(C)C)C(=O)N2CCC[C@H]2C(N)=O)NC(=O)[C@H](Cc2c[nH]c3ccccc23)NC(=O)[C@H](Cc2ccc(O)cc2)NC(=O)[C@H](CCC(=O)O)NC1=O)[C@@H](C)O` [SPMI-HIF1-2] (Ac-TSF[S5]EYW[S5]LLS[PEG2]LA[Hyp]Y[hLeu]P-NH2; staple 4-8), the figures for the IC50 with HCT116 p53^-/- cells and in the data set with HCT116 p53^+/+ cells were above 100 µM and 85.1 µM, respectively. Besides, the helicity in the data set “circular dichroism” was determined as 2%. The “α-helicity (%)” value in data set [1] is 2%.

Turning to `CC(=O)N[C@H](C(=O)N[C@@H](CO)C(=O)N[C@@H](Cc1ccccc1)C(=O)N[C@@H](C)C(=O)N[C@@H](CCC(=O)O)C(=O)N[C@@H](Cc1ccc(O)cc1)C(=O)N[C@@H](Cc1c[nH]c2ccccc12)C(=O)N[C@@H](C)C(=O)N[C@@H](CC(C)C)C(=O)N[C@@H](CC(C)C)C(=O)N[C@@H](CO)C(=O)NCCOCCOCCOCCC(=O)N[C@@H](CC(C)C)C(=O)N[C@@H](C)C(=O)N1C[C@H](O)C[C@H]1C(=O)N[C@@H](Cc1ccc(O)cc1)C(=O)N[C@@H](CCC(C)C)C(=O)N1CCC[C@H]1C(N)=O)[C@@H](C)O` [PMI-HIF1-3], the helicity in the data set “circular dichroism” is 17%. In data set [1], the “α-helicity (%)” value is 17%.

The compound `CC(=O)N[C@H](C(=O)N[C@@H](CO)C(=O)N[C@@H](Cc1ccccc1)C(=O)N[C@@H](C)C(=O)N[C@@H](CCC(=O)O)C(=O)N[C@@H](Cc1ccc(O)cc1)C(=O)N[C@@H](Cc1c[nH]c2ccccc12)C(=O)N[C@@H](C)C(=O)N[C@@H](CC(C)C)C(=O)N[C@@H](CC(C)C)C(=O)N[C@@H](CO)C(=O)NCCOCCOCCC(=O)N[C@@H](CC(C)C)C(=O)N[C@@H](C)C(=O)N1C[C@H](O)C[C@H]1C(=O)N[C@@H](Cc1ccc(O)cc1)C(=O)N[C@@H](CCC(C)C)C(=O)N1CCC[C@H]1C(N)=O)[C@@H](C)O` [PMI-HIF1-2] returned a helicity in “circular dichroism” of 17%. Moreover, the “α-helicity (%)” value in data set [1] is reported as 17%.

For the compound `CC(=O)N[C@H](C(=O)N[C@@H](CO)C(=O)N[C@@H](Cc1ccccc1)C(=O)N[C@@]1(C)CCCC=CCCC[C@@](C)(C(=O)N[C@@H](CC(C)C)C(=O)N[C@@H](CC(C)C)C(=O)N[C@@H](CO)C(N)=O)NC(=O)[C@H](Cc2c[nH]c3ccccc23)NC(=O)[C@H](Cc2ccc(O)cc2)NC(=O)[C@H](CCC(=O)O)NC1=O)[C@@H](C)O` [SPMI1] (Ac-TSF[S5]EYW[S5]LLS-NH2; staple 4-8), the IC50 in the data set on HCT116 p53^-/- cells and in the data set on HCT116 p53^+/+ cells was above 100 µM each time. Moreover, the helicity in the data set “circular dichroism” is 4%. In addition, the “α-helicity (%)” value in data set [1] is reported as 4%.

With `CC(=O)N[C@H](C(=O)N[C@@H](CO)C(=O)N[C@@H](Cc1ccccc1)C(=O)N[C@@]1(C)CCCC=CCCC[C@@](C)(C(=O)N[C@@H](CC(C)C)C(=O)N[C@@H](CC(C)C)C(=O)N[C@@H](CO)C(=O)NCCOCC(=O)N[C@@H](CC(C)C)C(=O)N[C@@H](C)C(=O)N2C[C@H](O)C[C@H]2C(=O)N[C@@H](Cc2ccc(O)cc2)C(=O)N[C@@H](CCC(C)C)C(=O)N2CCC[C@H]2C(N)=O)NC(=O)[C@H](Cc2c[nH]c3ccccc23)NC(=O)[C@H](Cc2ccc(O)cc2)NC(=O)[C@H](CCC(=O)O)NC1=O)[C@@H](C)O` [SPMI-HIF1-1] (Ac-TSF[S5]EYW[S5]LLS[AEA]LA[Hyp]Y[hLeu]P-NH2; staple 4-8), the figures for the IC50 in the data set on HCT116 p53^-/- cells and in the data set with HCT116 p53^+/+ cells were above 100 µM and 82.1 µM, respectively. Also, the helicity in the data set “circular dichroism” amounted to 3%. In data set [1], the “α-helicity (%)” value is 3%.

Turning to `CC(=O)N[C@H](C(=O)N[C@@H](CO)C(=O)N[C@@H](Cc1ccccc1)C(=O)N[C@]1(C)CCCCCCC=CCCC[C@@](C)(C(=O)NCCOCCOCCC(=O)N[C@@H](CC(C)C)C(=O)N[C@@H](C)C(=O)N2C[C@H](O)C[C@H]2C(=O)N[C@@H](Cc2ccc(O)cc2)C(=O)N[C@@H](CCC(C)C)C(=O)N2CCC[C@H]2C(N)=O)NC(=O)[C@H](CC(C)C)NC(=O)[C@H](CC(C)C)NC(=O)[C@H](C)NC(=O)[C@H](Cc2c[nH]c3ccccc23)NC(=O)[C@H](Cc2ccc(O)cc2)NC(=O)[C@H](CCC(=O)O)NC1=O)[C@@H](C)O` [SPMI-HIF2-2] (Ac-TSF[R8]EYWALL[S5][PEG2]LA[Hyp]Y[hLeu]P-NH2; staple 4-11), the IC50 with HCT116 p53^-/- cells is above 100 µM; in the data set on HCT116 p53^+/+ cells it was 10.8 µM. In addition, the helicity in the data set “circular dichroism” was found to be 37%. In addition, the “α-helicity (%)” value in data set [1] is given as 37%.

With `CC(=O)N[C@H](C(=O)N[C@@H](CO)C(=O)N[C@@H](Cc1ccccc1)C(=O)N[C@@]1(C)CCCC=CCCC[C@@](C)(C(=O)N[C@@H](CC(C)C)C(=O)N[C@@H](CC(C)C)C(=O)N[C@@H](CO)C(=O)NCCOCCOCCOCCC(=O)N[C@@H](CC(C)C)C(=O)N[C@@H](C)C(=O)N2C[C@H](O)C[C@H]2C(=O)N[C@@H](Cc2ccc(O)cc2)C(=O)N[C@@H](CCC(C)C)C(=O)N2CCC[C@H]2C(N)=O)NC(=O)[C@H](Cc2c[nH]c3ccccc23)NC(=O)[C@H](Cc2ccc(O)cc2)NC(=O)[C@H](CCC(=O)O)NC1=O)[C@@H](C)O` [SPMI-HIF1-3] (Ac-TSF[S5]EYW[S5]LLS[PEG3]LA[Hyp]Y[hLeu]P-NH2; staple 4-8), the values for the IC50 in the data set with HCT116 p53^-/- cells and in the data set on HCT116 p53^+/+ cells were above 100 µM and 57.7 µM, respectively. The helicity in the data set “circular dichroism” was 27%. In data set [1], the “α-helicity (%)” value was 27%.

For the compound `CC(=O)N[C@H](C(=O)N[C@@H](CO)C(=O)N[C@@H](Cc1ccccc1)C(=O)N[C@]1(C)CCCCCCC=CCCC[C@@](C)(C(=O)NCCOCCOCCOCCC(=O)N[C@@H](CC(C)C)C(=O)N[C@@H](C)C(=O)N2C[C@H](O)C[C@H]2C(=O)N[C@@H](Cc2ccc(O)cc2)C(=O)N[C@@H](CCC(C)C)C(=O)N2CCC[C@H]2C(N)=O)NC(=O)[C@H](CC(C)C)NC(=O)[C@H](CC(C)C)NC(=O)[C@H](C)NC(=O)[C@H](Cc2c[nH]c3ccccc23)NC(=O)[C@H](Cc2ccc(O)cc2)NC(=O)[C@H](CCC(=O)O)NC1=O)[C@@H](C)O` [SPMI-HIF2-3] (Ac-TSF[R8]EYWALL[S5][PEG3]LA[Hyp]Y[hLeu]P-NH2; staple 4-11), the IC50 is above 100 µM with HCT116 p53^-/- cells and 15.2 µM in the data set with HCT116 p53^+/+ cells. The same compound came in with a helicity in “circular dichroism” of 24%. Moreover, in data set [1], the “α-helicity (%)” value is 24%.

As usually defined, the IC50 is the concentration needed to halve the response being measured. Read a high IC50 as a need for much substance.
